Tests used:
breinlia booliati [1] = assay: Time taken for In vitro anti-filarial activity to immobilize breinlia booliati (adult worms); format: functional
Mus musculus [2] = species: Mus musculus; assay: Minimum effective dose which on 5th day reduced the mean infection level to one-fiftieth of the control; No activity observed at a dose range of 0.05-2.0 mg (HCl) per 20 g
breinlia booliati [3] = assay: Time taken for In vitro anti-filarial activity to immobilize breinlia booliati (Microfilaria); format: functional
Mus musculus [4] = species: Mus musculus; assay: Minimum effective dose which on 5th day reduced the mean infection level to one-fiftieth of the control; format: functional
Mus musculus [5] = species: Mus musculus; assay: Lethal dose that killed mice in 48 hr; format: toxicity, organism-based; details: in vivo
[6] = Ratio of activity of quinine versus compound against Plasmodium berghei in mice; format: functional

SMILES | TIME (breinlia booliati [1]) [h] | MED (Mus musculus [2]) | TIME (breinlia booliati [3]) [h] | MED (Mus musculus [4]) | LD app (Mus musculus [5]) [mM/kg] | Ratio [6]
CCN(CC)C(=O)N(CC)Cc1cc(Nc2ccnc3cc(Cl)ccc23)ccc1OC | 8 | No activity | 8 | – | – | –
CCN(Cc1cc(Nc2ccnc3cc(Cl)ccc23)ccc1OC)C(=O)N1CCN(C)CC1 | 3 | – | 3 | 0.43 (mg of base) 20g-1 | 0.63 | 2.8
CCN(CC)C(=O)N(CC)Cc1cc(Nc2ccnc3cc(Cl)ccc23)ccc1O | 8 | No activity | 8 | – | – | –
CCN(CC)Cc1cc(Nc2ccnc3cc(Cl)ccc23)ccc1O.Cl | 3 | – | 3 | 0.077 (mg of base) 20g-1 | 0.32 | 15.8
CCN(CC)C(=O)N1CCN(Cc2cc(Nc3ccnc4cc(Cl)ccc34)ccc2OC)CC1 | 3 | – | 6 | 0.43 (mg of base) 20g-1 | 0.41 | 2.8
COc1ccc(Nc2ccnc3cc(Cl)ccc23)cc1CNC(=O)N1CCN(C)CC1 | 5 | – | 7 | 0.43 (mg of base) 20g-1 | 0.68 | 2.8
CCN(CC)C(=O)NCc1cc(Nc2ccnc3cc(Cl)ccc23)ccc1O | 8 | No activity | 8 | – | – | –
CCN(CC)C(=O)NCc1cc(Nc2ccnc3cc(Cl)ccc23)ccc1OC | 8 | No activity | 8 | – | – | –
CN1CCN(C(=O)NCc2cc(Nc3ccnc4cc(Cl)ccc34)ccc2O)CC1 | 5 | – | 7 | 0.043 (mg of base) 20g-1 | 0.66 | 28.4
CCN(CC)C(=O)N1CCN(Cc2cc(Nc3ccnc4cc(Cl)ccc34)ccc2O)CC1 | 3 | – | 6 | 0.43 (mg of base) 20g-1 | 0.37 | 2.8
CCN(Cc1cc(Nc2ccnc3cc(Cl)ccc23)ccc1O)C(=O)N1CCN(C)CC1 | 3 | – | 3 | 0.21 (mg of base) 20g-1 | 0.76 | 5.8
CCN(CC)C(=O)N1CCN(C)CC1 [DIETHYLCARBAMAZINE] | 2 | – | 4 | – | 1.34 | –
